Experimental data from patent US20230097883A1, “ERGOTHIONEINE PET COMPOUNDS AND METHODS OF USE THEREOF” (VANDERBILT UNIVERSITY, priority 2021, published 2023).
Entries after “also recorded” stand apart in the source; their conditions may differ.

How the values were obtained:
HeLa cells = assay: DCFH-DA ROS scavenging assay in HeLa cells; assay type: cell-based
From the text: We used a commercially available DCFH-DA (2′,7′-dichlorodihydrofluorescein diacetate) probe to assess the ROS scavenging power of ERGO in HeLa and neuroblastoma SH-SY5Y cells. Upon penetrating the cytoplasm, DCFH-DA is deacetylated by endogenous esterases to a non-fluorescent intermediate, followed by oxidation by free radicals. This generates a continuous and extended conjugation system, resulting in the production of highly fluorescent DCF (2′ 7′-dichlorofluorescein). In an aqueous condition, DCF has a maximal excitation and emission of 495 nm and 529 nm, respectively. Well-adhered HeLa or SH-SY5Y cells previously incubated with DCFH-DA were exposed to a commercial ROS initializer and ERGO concentrations ranging from 0-100 mM. […] Each point in the assay was measured in pentaplicate, p<0.0001.
On day 1, HeLa cells or SH-SY5Y cells were seeded into a 96-well plate with a density of 10,000 cells/mL. […] Immediately afterwards, fluorescence measurement began using a microplate reader (Biotek Industries, Agilent Technologies, Winooski, Vt., USA) with an excitation and emission wavelength of 485 nm and 528 nm, respectively. Each ERGO concentration was measured in pentaplicate.

5XFAD mice = assay: Conditioned fear task after ERGO treatment; assay type: in vivo, mouse; details: ERGO-treated 5XFAD mice, novel context, 25 hours following training
Procedure: To address our primary question whether longitudinal consumption of ERGO as a potent antioxidant benefit the brain, three cohorts of animals (n=12 non-treated WT control, n=12 non-treated 5XFAD, and n=18 ERGO-treated 5XFAD) were used (FIG. 3.2A). Starting at the age of 8 weeks, the animals were treated with high doses of ERGO solution (25-50 mg/Kg) formulated in double distilled (dd) water via oral gavage three times a week over the course of eight weeks. To reduce bias in the behavioral experiments with regard to the potential stress during gavage treatment, non-treated animals underwent the identical gavage process with the vehicle, water, only. The efficacy of the therapy was evaluated by behavioral testing, followed by three different non-invasive PET imaging sessions to assess biomarkers related to AD pathology. In addition to assessing Abeta levels and glucose metabolism using the [^11C]PIB and [^18F]FDG probes, respectively; we also tested for the first time whether oxidative stress could be used as an indicator of response to therapy using the [^11C]ERGO PET radioligand. Finally, animals were euthanized, and the brains were collected for immunohistochemical analysis. […]
Mice were placed in a sound-attenuating chamber with a wire grid floor capable of transmitting an electric shock. All movements were monitored by cameras fixed to the inside of the doors. […]

C[N+](C)(C)[C@@H](Cc1c[nH]c(=S)[nH]1)C(=O)[O-] [ERGO, L-ergothioneine]
DCF fluorescence signal (ROS) (HeLa cells; ERGO 100 mM): nearly negligible; also recorded: quenches the fluorescence totally | DCF fluorescence signal (ROS) (HeLa cells; ERGO starting from 5 mM): attenuates the fluorescence significantly | cue-based recall, freezing time while the cue was played (5XFAD mice): ~50%
